Test results from ChEMBL document CHEMBL1201862, “PubChem BioAssay data set” (2004).
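Growth conditions: 96-well plates. Treatment: test compound, 48 hours, 5 concentrations. Analysis: linear interpolation between bracketing concentrations; unreached endpoints set to highest concentration. Here, GI50 denotes the concentration required for 50% inhibition of growth.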 Active and inactive are the calls of the source. Cut-off read from the data, not from the text of the source: active = GI50 up to about 1.1 µM and inactive = higher.

Columns and labels:
Assay in all cases: NCI anticancer screen, dose series, 48 h
DMS-114 = system: DMS-114
786-0 = system: 786-0
NCI-H522 = system: NCI-H522
CAKI-1 = system: CAKI-1
SK-MEL-5 = system: SK-MEL-5
OVCAR-4 = system: OVCAR-4
Malme-3M = system: Malme-3M
CCRF-CEM = system: CCRF-CEM
SK-MEL-2 = system: SK-MEL-2
SW-620 = system: SW-620
OVCAR-8 = system: OVCAR-8
RPMI-8226 = system: RPMI-8226
M14 = system: M14
SN12C = system: SN12C
UACC-257 = system: UACC-257
HL-60 = system: HL-60
HOP-62 = system: HOP-62
OVCAR-3 = system: OVCAR-3
HT-29 = system: HT-29
A498 = system: A498
IGROV-1 = system: IGROV-1
NCI-H226 = system: NCI-H226
COLO 205 = system: COLO 205
RXF 393 = system: RXF 393
HCT-116 = system: HCT-116
UACC-62 = system: UACC-62
HCT-15 = system: HCT-15
U-251 = system: U-251
UO-31 = system: UO-31
SK-OV-3 = system: SK-OV-3
NCI-H460 = system: NCI-H460
KM-20L2 = system: KM-20L2
SF-539 = system: SF-539
DLD-1 = system: DLD-1
SNB-78 = system: SNB-78
SK-MEL-28 = system: SK-MEL-28
MOLT-4 = system: MOLT-4
DMS-273 = system: DMS-273
A549 = system: A549
SNB-75 = system: SNB-75
OVCAR-5 = system: OVCAR-5
SR = system: SR
SF-295 = system: SF-295
LOX IMVI = system: LOX IMVI
SF-268 = system: SF-268
HCC 2998 = system: HCC 2998
SNB-19 = system: SNB-19
K562 = system: K562
LXFL 529 = system: LXFL 529
NCI-H23 = system: NCI-H23
KM12 = system: KM12
ACHN = system: ACHN
HOP-18 = system: HOP-18
M19-MEL = system: M19-MEL
EKVX = system: EKVX
HOP-92 = system: HOP-92
XF498 = system: XF498
TK-10 = system: TK-10

Measured: GI50

Cc1cc(N(CCC#N)S(C)(=O)=O)ccc1C=O
inactive: DMS-114 > 100 µM | 786-0 > 100 µM | NCI-H522 > 100 µM | CAKI-1 > 100 µM | SK-MEL-5 > 100 µM | OVCAR-4 > 100 µM | Malme-3M > 100 µM | CCRF-CEM > 100 µM | SK-MEL-2 > 100 µM | SW-620 > 100 µM | OVCAR-8 > 100 µM | RPMI-8226 > 100 µM | M14 > 100 µM | SN12C > 100 µM | UACC-257 > 100 µM | HL-60 > 100 µM | HOP-62 > 100 µM | OVCAR-3 > 100 µM | HT-29 > 100 µM | A498 > 100 µM | IGROV-1 > 100 µM | NCI-H226 > 100 µM | COLO 205 > 100 µM | RXF 393 > 100 µM | HCT-116 > 100 µM | UACC-62 > 100 µM | U-251 > 100 µM | UO-31 > 100 µM | SK-OV-3 > 100 µM | NCI-H460 > 100 µM | KM-20L2 > 100 µM | SF-539 > 100 µM | DLD-1 > 100 µM | SNB-78 > 100 µM | SK-MEL-28 > 100 µM | MOLT-4 > 100 µM | DMS-273 > 100 µM | A549 > 100 µM | SNB-75 > 100 µM | OVCAR-5 > 100 µM | SR > 100 µM | SF-295 > 100 µM | LOX IMVI > 100 µM | SF-268 > 100 µM | HCC 2998 > 100 µM | SNB-19 > 100 µM | K562 > 100 µM | LXFL 529 > 100 µM | NCI-H23 > 100 µM | KM12 > 100 µM | ACHN > 100 µM | HOP-18 > 100 µM
> 100 µM: HCT-15

CCOC(=O)/C(=C/c1ccc(Cl)cc1)N(CC)CC
inactive: M19-MEL > 100 µM | 786-0 > 100 µM | NCI-H522 89.1 µM | CAKI-1 > 100 µM | SK-MEL-5 > 100 µM | OVCAR-4 > 100 µM | Malme-3M > 100 µM | CCRF-CEM > 100 µM | SK-MEL-2 > 100 µM | SW-620 > 100 µM | OVCAR-8 > 100 µM | EKVX > 100 µM | RPMI-8226 > 100 µM | M14 > 100 µM | HOP-92 74.1 µM | SN12C > 100 µM | UACC-257 > 100 µM | HL-60 > 100 µM | HOP-62 > 100 µM | HT-29 > 100 µM | A498 > 100 µM | IGROV-1 > 100 µM | NCI-H226 > 100 µM | COLO 205 > 100 µM | HCT-116 > 100 µM | UACC-62 > 100 µM | U-251 > 100 µM | UO-31 > 100 µM | SK-OV-3 > 100 µM | XF498 > 100 µM | NCI-H460 > 100 µM | SF-539 > 100 µM | DLD-1 > 100 µM | SNB-78 > 100 µM | SK-MEL-28 > 100 µM | MOLT-4 > 100 µM | A549 90.4 µM | SNB-75 > 100 µM | OVCAR-5 > 100 µM | TK-10 > 100 µM | SR > 100 µM | SF-295 > 100 µM | LOX IMVI > 100 µM | SF-268 > 100 µM | HCC 2998 > 100 µM | K562 > 100 µM | LXFL 529 > 100 µM | NCI-H23 > 100 µM | KM12 > 100 µM | ACHN > 100 µM | HOP-18 > 100 µM
> 100 µM: HCT-15

O=c1sc2ccccc2n1CC1CS1 (configuration not stated)
> 100 µM: HCT-15
inactive: DMS-114 > 100 µM | M19-MEL > 100 µM | NCI-H522 > 100 µM | CAKI-1 > 100 µM | OVCAR-4 > 100 µM | Malme-3M > 100 µM | CCRF-CEM > 100 µM | SK-MEL-2 > 100 µM | SW-620 > 100 µM | OVCAR-8 > 100 µM | EKVX > 100 µM | RPMI-8226 > 100 µM | M14 > 100 µM | HOP-92 > 100 µM | SN12C > 100 µM | HL-60 > 100 µM | HOP-62 > 100 µM | OVCAR-3 > 100 µM | HT-29 > 100 µM | IGROV-1 > 100 µM | NCI-H226 > 100 µM | COLO 205 > 100 µM | RXF 393 > 100 µM | HCT-116 > 100 µM | UACC-62 > 100 µM | UO-31 > 100 µM | SK-OV-3 > 100 µM | XF498 > 100 µM | NCI-H460 > 100 µM | KM-20L2 > 100 µM | SF-539 > 100 µM | SK-MEL-28 > 100 µM | MOLT-4 > 100 µM | DMS-273 > 100 µM | A549 > 100 µM | OVCAR-5 > 100 µM | TK-10 > 100 µM | SR > 100 µM | SF-295 > 100 µM | LOX IMVI > 100 µM | SF-268 > 100 µM | HCC 2998 > 100 µM | SNB-19 > 100 µM | K562 > 100 µM | KM12 > 100 µM | ACHN > 100 µM
